# Source: ChEMBL document CHEMBL3351395, “Podoimbricatin A, a cytotoxic diterpenoid with an unprecedented 6/6/5/6-fused tetracyclic ring system from the twigs and leaves of Podocarpus imbricatus” (Bioorg Med Chem Lett, 2014)
# How the values were obtained:
# [1] = system: A549; assay: Antiproliferative activity against human A549 cells by MTT assay; type: functional, cell-based
# [2] = system: NCI-H292; assay: Antiproliferative activity against human NCI-H292 cells by MTT assay; type: functional, cell-based
SMILES,IC50 [1],IC50 [2]
CC1(C)CCC[C@]2(C)[C@H]3C[C@H]4C(CO)=CCO[C@@H]4[C@H]3C[C@H](O)[C@@H]12,25.2 µM,19.1 µM
CCC(C)C1NC(=O)C(NC(=O)/C=C/c2ccccc2)C(C(C)C)Oc2ccc(cc2)/C=C/NC1=O (stereo unspecified),21.5 µM,17.8 µM
C=C1CC[C@@H]2[C@](C)(CCC[C@]2(C)C(=O)O)[C@H]1CC/C(C)=C/C(=O)O [AGATHIC ACID],47.8 µM,20.3 µM
